# Test results as given in the supplement of paper PMC10307832.
# Key:
# Experiment in all cases: relative viability (nuclei count vs DMSO), 5 days (fraction); higher = more cells survive
# EMC-BAC-2 = test system: EMC-BAC-2
# How it was run: (§1)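 Lung cancer cell lines were seeded in 1536-well plates and dosed by pin tool the next day, with either a single drug or a fixed anchor-drug dose combined with five library-drug doses (not always all listed) spaced in √10 steps. Five days later, one step fixed the cells and stained their nuclei (final 0.05% Triton X-100, 1% formaldehyde, 1 ug/ml Hoechst), and nuclei were counted on 4× images. Relative viability is the nuclei count in treated wells divided by the count in vehicle wells, and each value is the median of duplicate plates.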
# HOP-62 = test system: HOP-62
# How it was run: as §1
# NCI-H1975 = test system: NCI-H1975
# How it was run: as §1
# NCI-H322M = test system: NCI-H322M
# How it was run: as §1
# HCC-78 = test system: HCC-78
# How it was run: as §1
# NCI-H2085 = test system: NCI-H2085
# How it was run: as §1
# LXF-289 = test system: LXF-289
# How it was run: as §1
# HCC-15 = test system: HCC-15
# How it was run: as §1
# NCI-H522 = test system: NCI-H522
# How it was run: as §1
# NCI-H2126 = test system: NCI-H2126
# How it was run: as §1
# NCI-H1755 = test system: NCI-H1755
# How it was run: as §1
# UMC-11 = test system: UMC-11
# How it was run: as §1
# NCI-H1915 = test system: NCI-H1915
# How it was run: as §1
# NCI-H2023 = test system: NCI-H2023
# How it was run: as §1
# NCI-H441 = test system: NCI-H441
# How it was run: as §1
# COR-L 105 = test system: COR-L 105
# How it was run: as §1
# ChaGo-K-1 = test system: ChaGo-K-1
# How it was run: as §1
# ABC-1 = test system: ABC-1
# How it was run: as §1
# CAL-12T = test system: CAL-12T
# How it was run: as §1
# NCI-H3122 = test system: NCI-H3122
# How it was run: as §1
# NCI-H358 = test system: NCI-H358
# How it was run: as §1
# NCI-H1993 = test system: NCI-H1993
# How it was run: as §1
# NCI-H1666 = test system: NCI-H1666
# How it was run: as §1
# EPLC-272H = test system: EPLC-272H
# How it was run: as §1
compound,measurement,setting,value
C[C@@H]1CN(CC(=O)Nc2ccc3c(c2)Cc2cccc(-c4cc(=O)cc(N5CCOCC5)o4)c2S3)C[C@H](C)O1 + COc1cccc2cc(-c3nc([C@H]4CC[C@H](C(=O)O)CC4)n4ncnc(N)c34)[nH]c12 [OSI-027] (partner 0.5 µM),relative viability,EMC-BAC-2; first compound 0.04 µM,0.392
same,relative viability,EMC-BAC-2; first compound 0.1265 µM,0.429
same,relative viability,EMC-BAC-2; first compound 0.4 µM,0.385
same,relative viability,EMC-BAC-2; first compound 4 µM,0.39
same,relative viability,HOP-62; first compound 0.04 µM,0.828
same,relative viability,HOP-62; first compound 0.1265 µM,0.797
same,relative viability,HOP-62; first compound 0.4 µM,0.763
same,relative viability,HOP-62; first compound 4 µM,0.881
same,relative viability,NCI-H1975; first compound 0.04 µM,0.74
same,relative viability,NCI-H1975; first compound 0.1265 µM,0.602
same,relative viability,NCI-H1975; first compound 0.4 µM,0.608
same,relative viability,NCI-H1975; first compound 4 µM,0.448
same,relative viability,NCI-H322M; first compound 0.04 µM,0.485
same,relative viability,NCI-H322M; first compound 0.1265 µM,0.643
same,relative viability,NCI-H322M; first compound 0.4 µM,0.5
same,relative viability,NCI-H322M; first compound 4 µM,0.493
same,relative viability,HCC-78; first compound 0.04 µM,0.372
same,relative viability,HCC-78; first compound 0.1265 µM,0.358
same,relative viability,HCC-78; first compound 0.4 µM,0.365
same,relative viability,HCC-78; first compound 4 µM,0.384
same,relative viability,NCI-H2085; first compound 0.04 µM,0.97
same,relative viability,NCI-H2085; first compound 0.1265 µM,0.611
same,relative viability,NCI-H2085; first compound 0.4 µM,0.476
same,relative viability,NCI-H2085; first compound 4 µM,0.477
same,relative viability,LXF-289; first compound 0.04 µM,0.779
same,relative viability,LXF-289; first compound 0.1265 µM,0.829
same,relative viability,LXF-289; first compound 0.4 µM,0.86
same,relative viability,LXF-289; first compound 4 µM,0.777
same,relative viability,HCC-15; first compound 0.04 µM,0.76
same,relative viability,HCC-15; first compound 0.1265 µM,0.606
same,relative viability,HCC-15; first compound 0.4 µM,0.485
same,relative viability,HCC-15; first compound 4 µM,0.524
same,relative viability,NCI-H522; first compound 0.04 µM,0.706
same,relative viability,NCI-H522; first compound 0.1265 µM,0.679
same,relative viability,NCI-H522; first compound 0.4 µM,0.742
same,relative viability,NCI-H522; first compound 4 µM,0.735
same,relative viability,NCI-H2126; first compound 0.04 µM,0.708
same,relative viability,NCI-H2126; first compound 0.1265 µM,0.579
same,relative viability,NCI-H2126; first compound 0.4 µM,0.677
same,relative viability,NCI-H2126; first compound 4 µM,0.647
same,relative viability,NCI-H1755; first compound 0.04 µM,0.697
same,relative viability,NCI-H1755; first compound 0.1265 µM,0.651
same,relative viability,NCI-H1755; first compound 0.4 µM,0.668
same,relative viability,NCI-H1755; first compound 4 µM,0.578
same,relative viability,UMC-11; first compound 0.04 µM,0.51
same,relative viability,UMC-11; first compound 0.1265 µM,0.464
same,relative viability,UMC-11; first compound 0.4 µM,0.472
same,relative viability,UMC-11; first compound 4 µM,0.352
same,relative viability,NCI-H1915; first compound 0.04 µM,0.623
same,relative viability,NCI-H1915; first compound 0.1265 µM,0.682
same,relative viability,NCI-H1915; first compound 0.4 µM,0.632
same,relative viability,NCI-H1915; first compound 4 µM,0.497
same,relative viability,NCI-H2023; first compound 0.04 µM,0.518
same,relative viability,NCI-H2023; first compound 0.1265 µM,0.387
same,relative viability,NCI-H2023; first compound 0.4 µM,0.306
same,relative viability,NCI-H2023; first compound 4 µM,0.197
same,relative viability,NCI-H441; first compound 0.04 µM,0.74
same,relative viability,NCI-H441; first compound 0.1265 µM,0.791
same,relative viability,NCI-H441; first compound 0.4 µM,0.398
same,relative viability,NCI-H441; first compound 4 µM,0.438
same,relative viability,COR-L 105; first compound 0.04 µM,0.728
same,relative viability,COR-L 105; first compound 0.1265 µM,0.828
same,relative viability,COR-L 105; first compound 0.4 µM,0.823
same,relative viability,COR-L 105; first compound 4 µM,0.661
same,relative viability,ChaGo-K-1; first compound 0.04 µM,0.525
same,relative viability,ChaGo-K-1; first compound 0.1265 µM,0.593
same,relative viability,ChaGo-K-1; first compound 0.4 µM,0.531
same,relative viability,ChaGo-K-1; first compound 4 µM,0.533
same,relative viability,ABC-1; first compound 0.1265 µM,0.541
same,relative viability,ABC-1; first compound 0.4 µM,0.466
same,relative viability,ABC-1; first compound 4 µM,0.439
same,relative viability,CAL-12T; first compound 0.04 µM,0.734
same,relative viability,CAL-12T; first compound 0.1265 µM,0.675
same,relative viability,CAL-12T; first compound 0.4 µM,0.561
same,relative viability,CAL-12T; first compound 4 µM,0.237
same,relative viability,NCI-H3122; first compound 0.04 µM,0.994
same,relative viability,NCI-H3122; first compound 0.1265 µM,0.901
same,relative viability,NCI-H3122; first compound 0.4 µM,0.206
same,relative viability,NCI-H3122; first compound 4 µM,0.668
same,relative viability,NCI-H358; first compound 0.04 µM,0.679
same,relative viability,NCI-H358; first compound 0.1265 µM,0.673
same,relative viability,NCI-H358; first compound 0.4 µM,0.852
same,relative viability,NCI-H358; first compound 4 µM,0.418
same,relative viability,NCI-H1993; first compound 0.04 µM,0.578
same,relative viability,NCI-H1993; first compound 0.1265 µM,0.603
same,relative viability,NCI-H1993; first compound 0.4 µM,0.597
same,relative viability,NCI-H1993; first compound 4 µM,0.551
same,relative viability,NCI-H1666; first compound 0.04 µM,0.932
same,relative viability,NCI-H1666; first compound 0.1265 µM,0.87
same,relative viability,NCI-H1666; first compound 0.4 µM,0.978
same,relative viability,NCI-H1666; first compound 4 µM,0.838
same,relative viability,EPLC-272H; first compound 0.04 µM,0.279
same,relative viability,EPLC-272H; first compound 0.1265 µM,0.334
same,relative viability,EPLC-272H; first compound 0.4 µM,0.301
same,relative viability,EPLC-272H; first compound 4 µM,0.304
